Experimental data: patent publication US7951979B2, “2,4,6-trisubstituted phenols having anesthetic properties” (University of Iowa Research Foundation, priority 2006, dated 2011)

What was measured:
GABA receptors = experiment: in vitro assay for direct GABA activation; format: cell-based; conditions: FIG. 2
From the text: Propofol and analogs are known to activate GABA receptors (see, e.g., Trapani et al., J. Med. Chem. 1998, 41, 1846-1854, incorporated herein by reference). While the relationship between GABA activation and anesthetic activity is not completely clear, it is believed that the ability of a compound to directly activate GABA receptors may be related to the anesthetic, sedative, and/or anxiolytic activity of the compound. Compounds of the invention can be tested in in vitro electrophysiological assays to determine the ability of the compound to activate GABA receptors.
Compound 1 was synthesized as described in Example 1. The compound was tested in an in vitro assay for direct GABA activation.

rats = experiment: i.v. injection into the lateral tail vein of rats, loss of righting reflex / anesthesia
Procedure: Compound 1 was formulated in 16% Cremophor EL solution in water at a concentration of approximately 15 mg/ml and tested in rats as follows.
Approximately 15 mg/kg of Compound 1 in the suspension were injected into the lateral tail vein of two rats (weight 330-340 g).

[1] = Rat 1, approximately 15 mg/kg i.v. (lateral tail vein), 16% Cremophor EL in water
[2] = rat, conditions similar to Example 2 (similar dose and route of administration)

Row | Structure (SMILES) | direct activation of GABA receptors (GABA receptors) | time post-injection at which the rat appeared normal (rats; [1]) | total time of loss of righting reflex (rats; [1]) | total time of loss of righting reflex (rats; Rat 2 (agitated prior to injection), approximately 15 mg/kg i.v. (lateral tail vein), 16% Cremophor EL in water) | duration of anesthesia (rats; rats, about 15 mg/kg i.v.) | tremors, agitation or excitement on injection (rats; rats, about 15 mg/kg i.v.) | overall anesthetic activity (rats; rats, i.v.) | induction of anesthesia (rats; [2]) | tremors and shaking upon i.v. injection (rats; [2])
1 | CC(C)c1cc(C(O)C(F)(F)F)cc(C(C)C)c1O (stereo not drawn) [Compound 1, 2,6-diisopropyl-4-(2,2,2-trifluoro-1-hydroxy-ethyl)-phenol] | capable of direct activation of GABA receptors | about 7.5 minutes | about 3.5 minutes | about 2.0 minutes | 2 to 3 min | without tremors, agitation or excitement | potent short-acting i.v. anesthetic |  | 
2 | CC(C)c1cc(C(=O)C(F)(F)F)cc(C(C)C)c1O [Compound 2, 2,2,2-trifluoro-1-(4-hydroxy-3,5-diisopropyl-phenyl)-ethanone] |  |  |  |  |  |  |  | did not appear to induce anesthesia | caused tremors and shaking
